ChEMBL document CHEMBL3867482, “Design and synthesis of water soluble β-aminosulfone analogues of SCH 900229 as γ-secretase inhibitors” (Bioorg Med Chem Lett, 2016)
≈ marks a conversion by molar mass, not a printed value.

How the values were obtained:
[1] = target: Cytochrome P450 2D6 (Homo sapiens, UniProt P10635); assay: Inhibition of CYP2D6 in human liver microsomes after 30 secs by LC/MS/MS analysis; type: ADME
[2] = system: Mus musculus; assay: Antialzheimer activity in B6C3F1 mouse assessed as amyloid beta 40 level in plasma at 10 mg/kg, po administered as single dose after 3 hrs relative to control; type: functional
[3] = AUC (0 to 6 hrs) in mouse at 10 mg/kg, po by LC/MS/MS analysis; type: ADME, organism-based; parameters: time < 6 hr, dose 10 mg/kg, route oral; conditions: in vivo; for AUC: 6 h, BLD = below limit of detection
[4] = Selectivity ratio of IC50 for human gamma secretase PS2 (1 to 467 residues) expressed in baculovirus infected sf9 cells co-expressing aph-1a to IC50 for gamma secretase PS1 (1 to 448 residues) expressed in baculovirus infected sf9 cells co-expressing aph-1a
[5] = Clearance in human hepatocytes assessed per million cells by HPLC/atmospheric pressure chemical ionization/MS analysis; type: ADME, cell-based, Hepatocyte; conditions: read-out: CLH
[6] = target: Cytochrome P450 2C9 (Homo sapiens, UniProt P11712); assay: Inhibition of CYP2C9 in human liver microsomes after 30 secs by LC/MS/MS analysis; type: ADME
Cytochrome P450 2C9, sequence (P11712 whole entry): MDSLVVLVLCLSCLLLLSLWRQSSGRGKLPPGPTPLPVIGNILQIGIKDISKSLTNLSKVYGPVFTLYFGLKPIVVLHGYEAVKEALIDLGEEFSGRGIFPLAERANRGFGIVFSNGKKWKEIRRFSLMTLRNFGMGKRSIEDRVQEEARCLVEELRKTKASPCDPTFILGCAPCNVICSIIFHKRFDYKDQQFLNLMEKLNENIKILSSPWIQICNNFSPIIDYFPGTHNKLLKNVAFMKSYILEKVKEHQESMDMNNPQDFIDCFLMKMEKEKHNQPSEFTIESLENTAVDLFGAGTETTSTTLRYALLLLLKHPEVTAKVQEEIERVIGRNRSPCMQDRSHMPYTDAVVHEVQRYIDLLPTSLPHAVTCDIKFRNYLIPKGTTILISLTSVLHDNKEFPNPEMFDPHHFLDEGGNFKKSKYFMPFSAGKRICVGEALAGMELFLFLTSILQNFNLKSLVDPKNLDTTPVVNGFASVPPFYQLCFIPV

[7] = Kinetic solubility of compound; type: physicochemical; conditions: read-out: Kinetic_solubility
[8] = target: T1, Cytochrome P450 3A4 (Homo sapiens, UniProt P08684); assay: Inhibition of CYP3A4 in human liver microsomes preincubated for 30 mins after 30 secs by LC/MS/MS analysis; type: ADME
T1 sequence (P08684 whole entry): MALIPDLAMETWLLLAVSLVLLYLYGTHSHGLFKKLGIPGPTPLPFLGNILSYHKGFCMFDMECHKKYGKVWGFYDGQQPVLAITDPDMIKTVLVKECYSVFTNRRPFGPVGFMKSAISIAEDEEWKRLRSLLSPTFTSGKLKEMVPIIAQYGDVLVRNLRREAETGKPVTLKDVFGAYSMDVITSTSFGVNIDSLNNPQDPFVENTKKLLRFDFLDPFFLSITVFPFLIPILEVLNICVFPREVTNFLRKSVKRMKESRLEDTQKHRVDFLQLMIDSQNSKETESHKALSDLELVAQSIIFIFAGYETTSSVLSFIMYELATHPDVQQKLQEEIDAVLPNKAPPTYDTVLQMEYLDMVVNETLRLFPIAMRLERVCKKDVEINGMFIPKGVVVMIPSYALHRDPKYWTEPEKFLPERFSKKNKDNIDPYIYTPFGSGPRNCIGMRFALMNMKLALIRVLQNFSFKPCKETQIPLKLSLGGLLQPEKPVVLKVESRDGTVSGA

[9] = Clearance in monkey hepatocytes assessed per million cells by HPLC/atmospheric pressure chemical ionization/MS analysis; type: ADME, cell-based, Macaca mulatta, Hepatocyte; conditions: rhesus monkey, read-out: CLH
[10] = Clearance in rat hepatocytes assessed per million cells by HPLC/atmospheric pressure chemical ionization/MS analysis; type: ADME, cell-based, Hepatocyte; conditions: read-out: CLH
[11] = target: T1, Cytochrome P450 3A4; assay: Inhibition of CYP3A4 in human liver microsomes after 30 secs by LC/MS/MS analysis; type: ADME
[12] = Inhibition of gamma-secretase in HEK293 cell membranes expressing human APP Swedish/London double mutant assessed as reduction in amyloid beta 40 formation after 1 hr by electrochemiluminescence based immunoassay
[13] = Clearance in dog hepatocytes assessed per million cells by HPLC/atmospheric pressure chemical ionization/MS analysis; type: ADME, cell-based, Canis lupus familiaris, Hepatocyte; conditions: read-out: CLH
[14] = system: Mus musculus; assay: Antialzheimer activity in B6C3F1 mouse assessed as amyloid beta 40 level in cortex at 10 mg/kg, po administered as single dose after 3 hrs relative to control; type: functional
[15] = Ratio of drug level in brain to plasma in mouse at 6 hrs; type: ADME, organism-based; conditions: brain and plasma, read-out: BPR

Cytochrome P450 2D6, sequence (P10635 whole entry): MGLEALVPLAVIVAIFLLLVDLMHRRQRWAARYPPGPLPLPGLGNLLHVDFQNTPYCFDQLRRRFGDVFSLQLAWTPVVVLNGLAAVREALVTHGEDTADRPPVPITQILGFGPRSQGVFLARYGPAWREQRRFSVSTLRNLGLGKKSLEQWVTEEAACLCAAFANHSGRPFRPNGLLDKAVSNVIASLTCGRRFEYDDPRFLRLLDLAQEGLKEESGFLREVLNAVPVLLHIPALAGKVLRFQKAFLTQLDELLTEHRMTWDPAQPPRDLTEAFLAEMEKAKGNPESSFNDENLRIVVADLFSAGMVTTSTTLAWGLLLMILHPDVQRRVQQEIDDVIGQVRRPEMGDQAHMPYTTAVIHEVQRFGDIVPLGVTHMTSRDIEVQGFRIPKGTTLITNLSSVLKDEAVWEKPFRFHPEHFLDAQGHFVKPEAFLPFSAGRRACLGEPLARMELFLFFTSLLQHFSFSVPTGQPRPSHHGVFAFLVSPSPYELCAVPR

Row | IC50 [1] | IC50 [6] | IC50 [8] | hepatocyte CLint [9] | hepatocyte CLint [10] | IC50 [11] | IC50 [12] | hepatocyte CLint [13] | Compound | Activity [2] | Ratio IC50 [4] | also measured
1 |  |  |  |  |  |  | 0.002 µM |  | O=S(=O)(CCNC1CCC1)CC[C@@H]1OCC[C@@]2(S(=O)(=O)c3ccc(Cl)cc3)c3c(F)ccc(F)c3OC[C@@H]12 |  |  | 
2 | > 20 µM | > 20 µM | 9 µM | 65 µL/min/1e6 cells | 66.7 µL/min/1e6 cells | > 20 µM | 0.0017 µM | 56.5 µL/min/1e6 cells | CN(C)CCS(=O)(=O)CC[C@@H]1OCC[C@@]2(S(=O)(=O)c3ccc(Cl)cc3)c3c(F)ccc(F)c3OC[C@@H]12 | -21% | 20 | Activity [14]: -45%; AUC [3]: Bld; hepatocyte CLint [5]: 57.2 µL/min/1e6 cells; solubility kinetic [7]: 50 µM (≈ 28.2 µg/mL)
3 |  |  |  |  |  |  | 0.0016 µM |  | O=S(=O)(CC[C@@H]1OCC[C@@]2(S(=O)(=O)c3ccc(Cl)cc3)c3c(F)ccc(F)c3OC[C@@H]12)CCN1CCC1 |  | 17 | 
4 | > 20 µM | > 20 µM | 1.4 µM | 44.6 µL/min/1e6 cells | 29.1 µL/min/1e6 cells | > 20 µM | 0.0009 µM | 10.8 µL/min/1e6 cells | CCNCCS(=O)(=O)CC[C@@H]1OCC[C@@]2(S(=O)(=O)c3ccc(Cl)cc3)c3c(F)ccc(F)c3OC[C@@H]12 |  |  | Kp at 6 h [15]: 0.4; AUC(0-t) at 6 h [3]: 1.35 µM·h; hepatocyte CLint [5]: 15.1 µL/min/1e6 cells
5 |  |  |  |  |  |  | 0.0005 µM |  | CC(C)NCCS(=O)(=O)CC[C@@H]1OCC[C@@]2(S(=O)(=O)c3ccc(Cl)cc3)c3c(F)ccc(F)c3OC[C@@H]12 |  | 30 | 
6 |  |  |  |  |  |  | 0.0013 µM |  | CS(=O)(=O)CC[C@@H]1OCC[C@@]2(S(=O)(=O)c3ccc(Cl)cc3)c3c(F)ccc(F)c3OC[C@@H]12 | -89% | 25 | Activity [14]: -78%
7 |  |  |  |  |  |  | 0.0013 µM |  | O=S(=O)(CC[C@@H]1OCC[C@@]2(S(=O)(=O)c3ccc(Cl)cc3)c3c(F)ccc(F)c3OC[C@@H]12)CCN1CCCCC1 |  | 9 | 
8 |  |  |  |  |  |  | 0.0027 µM |  | O=C(O)CS(=O)(=O)CC[C@@H]1OCC[C@@]2(S(=O)(=O)c3ccc(Cl)cc3)c3c(F)ccc(F)c3OC[C@@H]12 | 47% | 22 | solubility kinetic [7]: > 200 µM

Second part, the compound before the results:

Row | Compound | IC50 [1] | IC50 [6] | IC50 [8] | hepatocyte CLint [9] | hepatocyte CLint [10] | IC50 [11] | IC50 [12] | hepatocyte CLint [13] | Activity [2] | Ratio IC50 [4] | also measured
9 | O=S(=O)(CC[C@@H]1OCC[C@@]2(S(=O)(=O)c3ccc(Cl)cc3)c3c(F)ccc(F)c3OC[C@@H]12)CCN1CCNCC1 | > 20 µM | > 20 µM | > 20 µM | 12.7 µL/min/1e6 cells | 6.1 µL/min/1e6 cells | > 20 µM | 0.0008 µM | 7.7 µL/min/1e6 cells | -95% | 10 | AUC [3]: Bld; hepatocyte CLint [5]: 5.3 µL/min/1e6 cells; solubility kinetic [7]: 200 µM (≈ 121 µg/mL)
10 | O=S(=O)(CC[C@@H]1OCC[C@@]2(S(=O)(=O)c3ccc(Cl)cc3)c3c(F)ccc(F)c3OC[C@@H]12)C[C@@H]1CCCN1 |  |  |  |  |  |  |  |  |  | 14 | 
11 | Cl.O=S(=O)(CC[C@@H]1OCC[C@@]2(S(=O)(=O)c3ccc(Cl)cc3)c3c(F)ccc(F)c3OC[C@@H]12)[C@@H]1CCNC1 |  |  |  |  |  |  |  |  |  |  | solubility kinetic [7]: ≥ 200 µM
12 | CNCCS(=O)(=O)CC[C@@H]1OCC[C@@]2(S(=O)(=O)c3ccc(Cl)cc3)c3c(F)ccc(F)c3OC[C@@H]12.Cl |  |  |  |  |  |  |  |  |  |  | solubility kinetic [7]: ≥ 200 µM
13 | NCCS(=O)(=O)CC[C@@H]1OCC[C@@]2(S(=O)(=O)c3ccc(Cl)cc3)c3c(F)ccc(F)c3OC[C@@H]12 |  |  |  |  |  |  |  |  |  | 35 | 
14 | O=S(=O)(CC[C@@H]1OCC[C@@]2(S(=O)(=O)c3ccc(Cl)cc3)c3c(F)ccc(F)c3OC[C@@H]12)[C@H]1CCNC1 [listing 1 of 2 here] | > 20 µM | > 20 µM | 1 µM | 60.5 µL/min/1e6 cells | 18.9 µL/min/1e6 cells | 2 µM | 0.0014 µM | 21.1 µL/min/1e6 cells | -82% |  | Kp at 6 h [15]: 0.3; Activity [14]: -56%; AUC(0-t) at 6 h [3]: 1.02 µM·h; hepatocyte CLint [5]: 34.2 µL/min/1e6 cells
15 | O=S(=O)(CC[C@@H]1OCC[C@@]2(S(=O)(=O)c3ccc(Cl)cc3)c3c(F)ccc(F)c3OC[C@@H]12)[C@@H]1CCNC1 | > 20 µM | > 20 µM | 3.7 µM | 38.8 µL/min/1e6 cells | 13.9 µL/min/1e6 cells | 6.1 µM | 0.0051 µM | 17.9 µL/min/1e6 cells | -90% |  | Kp at 6 h [15]: 2; Activity [14]: -73%; AUC(0-t) at 6 h [3]: 1.17 µM·h; hepatocyte CLint [5]: 14.5 µL/min/1e6 cells
16 | O=S(=O)(CC[C@@H]1OCC[C@@]2(S(=O)(=O)c3ccc(Cl)cc3)c3c(F)ccc(F)c3OC[C@@H]12)[C@H]1CCNC1 [listing 2 of 2 here] |  |  |  |  |  |  |  |  |  | 30 | 
17 | O=S(=O)(CC[C@@H]1OCC[C@@]2(S(=O)(=O)c3ccc(Cl)cc3)c3c(F)ccc(F)c3OC[C@@H]12)C[C@H]1CCCN1 [listing 1 of 2 here] | > 20 µM | > 20 µM | 1 µM | 28 µL/min/1e6 cells | 12.8 µL/min/1e6 cells | > 20 µM | 0.001 µM | 13.6 µL/min/1e6 cells | -71% |  | Kp at 6 h [15]: 0.4; Activity [14]: -42%; AUC(0-t) at 6 h [3]: 2.52 µM·h
18 | O=S(=O)(CC[C@@H]1OCC[C@@]2(S(=O)(=O)c3ccc(Cl)cc3)c3c(F)ccc(F)c3OC[C@@H]12)C[C@H]1CCCN1 [listing 2 of 2 here] |  |  |  |  |  |  |  |  |  | 23 | 
